These results are taken from article PMC10065276, “Enhanced therapeutic window for antimicrobial Pept-ins by investigating their structure-activity relationship” (PLOS ONE, 2023).

Residues, ends and D or L forms follow the SMILES beside them.

In this experiment the test system is E. coli BL21. Particulars: BL21, 17 h. As for the experimental part:
The peptide MIC was determined via the broth microdilution assay according to the EUCAST guideline, using 96-well polystyrene flat-bottom microtiter plates (BD Biosciences). Briefly, a single colony was inoculated in 5 mL Mueller-Hinton (MH) medium and incubated, while shaking at 37°C, to the end-exponential growth phase. The bacterial culture was subsequently diluted to 0.005 McFarland (McF) (~1.5x10^6 CFU/mL) with fresh MH medium. Two-fold serial peptide-dilutions were prepared in 50 μL MH medium resulting in a concentration range of 0.75 to 100 μg/mL (at least three wells for each concentration). Afterwards, 50 μL of the freshly diluted bacterial suspension (0.005 McF) was mixed with different peptide concentrations in the 96-well plate, performed in triplicates. The plate was ultimately incubated at 37°C overnight without shaking for 17 hours. The MIC was determined as the lowest peptide concentration without visible bacterial growth.
Consider `CC[C@H](C)[C@H](NC(=O)CNC(=O)[C@H](CC(C)C)NC(=O)[C@H](CCCNC(=N)N)NC(=O)[C@@H]1CCCN1C(=O)[C@H](CCCNC(=N)N)NC(=O)[C@H](CCCNC(=N)N)NC(=O)[C@H](CC(C)C)NC(=O)[C@H](C)NC(=O)[C@@H](NC(=O)[C@H](C)NC(=O)[C@@H](NC(=O)CNC(=O)[C@H](C)NC(=O)[C@@H](N)CCCNC(=N)N)[C@@H](C)CC)C(C)C)C(=O)N[C@@H](C)C(=O)N[C@H](C(=O)N[C@@H](C)C(=O)N[C@@H](CC(C)C)C(=O)N[C@@H](CCCNC(=N)N)C(=O)N[C@@H](CCCNC(=N)N)C(=O)O)C(C)C` [Peptide P33-L2A] (H-RAGIAVALRRPRLGIAVALRR-OH), for which the “BL21 MIC” value was determined as 12.50 µg/mL. For `CC[C@H](C)[C@H](NC(=O)CNC(=O)[C@H](CC(C)C)NC(=O)[C@H](CCCNC(=N)N)NC(=O)[C@@H]1CCCN1C(=O)[C@H](C)NC(=O)[C@H](CCCNC(=N)N)NC(=O)[C@H](CC(C)C)NC(=O)[C@H](C)NC(=O)[C@@H](NC(=O)[C@H](C)NC(=O)[C@@H](NC(=O)CNC(=O)[C@H](CC(C)C)NC(=O)[C@@H](N)CCCNC(=N)N)[C@@H](C)CC)C(C)C)C(=O)N[C@@H](C)C(=O)N[C@H](C(=O)N[C@@H](C)C(=O)N[C@@H](CC(C)C)C(=O)N[C@@H](C)C(=O)N[C@@H](CCCNC(=N)N)C(=O)O)C(C)C` [Peptide P33_4R_4] (H-RLGIAVALRAPRLGIAVALAR-OH) the value was 12.50 µg/mL; for `CC[C@H](C)[C@H](NC(=O)CNC(=O)[C@H](CC(C)C)NC(=O)[C@@H](N)CCCNC(=N)N)C(=O)N[C@@H](C)C(=O)N[C@@H](C)C(=O)N[C@@H](C)C(=O)N[C@@H](CC(C)C)C(=O)N[C@@H](CCCNC(=N)N)C(=O)N[C@@H](CCCNC(=N)N)C(=O)N1CCC[C@H]1C(=O)N[C@@H](CCCNC(=N)N)C(=O)N[C@@H](CC(C)C)C(=O)NCC(=O)N[C@H](C(=O)N[C@@H](C)C(=O)N[C@H](C(=O)N[C@@H](C)C(=O)N[C@@H](CC(C)C)C(=O)N[C@@H](CCCNC(=N)N)C(=O)N[C@@H](CCCNC(=N)N)C(=O)O)C(C)C)[C@@H](C)CC` [Peptide P33-V6A] (H-RLGIAAALRRPRLGIAVALRR-OH), 6.25 µg/mL; for `CC(C)C[C@H](NC(=O)CNC(=O)[C@H](CCCNC(=N)N)NC(=O)[C@@H]1CCCN1C(=O)[C@H](CCCNC(=N)N)NC(=O)[C@H](C)NC(=O)[C@@H](NC(=O)[C@H](CC(C)C)NC(=O)[C@H](C)NC(=O)[C@H](CC(C)C)NC(=O)CNC(=O)[C@H](CC(C)C)NC(=O)CNC(=O)[C@@H](N)CCCNC(=N)N)C(C)C)C(=O)NCC(=O)N[C@@H](CC(C)C)C(=O)N[C@@H](C)C(=O)N[C@@H](CC(C)C)C(=O)N[C@H](C(=O)N[C@@H](CCCNC(=N)N)C(=O)N[C@@H](CCCNC(=N)N)C(=O)O)C(C)C` [Peptide P2_R9A] (H-RGLGLALVARPRGLGLALVRR-OH), 12.50 µg/mL. As for `CC(C)C[C@H](NC(=O)CNC(=O)[C@H](CCCNC(=N)N)NC(=O)[C@@H]1CCCN1C(=O)[C@H](CCCNC(=N)N)NC(=O)[C@H](CCCNC(=N)N)NC(=O)[C@H](Cc1c[nH]cn1)NC(=O)[C@H](Cc1c[nH]cn1)NC(=O)[C@H](C)NC(=O)[C@H](CC(C)C)NC(=O)CNC(=O)[C@H](CC(C)C)NC(=O)CNC(=O)[C@@H](N)CCCNC(=N)N)C(=O)NCC(=O)N[C@@H](CC(C)C)C(=O)N[C@@H](C)C(=O)N[C@@H](Cc1c[nH]cn1)C(=O)N[C@@H](Cc1c[nH]cn1)C(=O)N[C@@H](CCCNC(=N)N)C(=O)N[C@@H](CCCNC(=N)N)C(=O)O` [P2_zero_tango_3] (H-RGLGLAHHRRPRGLGLAHHRR-OH), the “BL21 MIC” value was above 100.00 µg/mL.

As to `CC(C)C[C@H](NC(=O)CNC(=O)[C@H](CCCNC(=N)N)NC(=O)[C@@H]1CCCN1C(=O)[C@H](CCCNC(=N)N)NC(=O)[C@H](CCCNC(=N)N)NC(=O)[C@@H](NC(=O)[C@H](CC(C)C)NC(=O)[C@H](Cc1c[nH]c2ccccc12)NC(=O)[C@H](CC(C)C)NC(=O)CNC(=O)[C@H](CC(C)C)NC(=O)CNC(=O)[C@@H](N)CCCNC(=N)N)C(C)C)C(=O)NCC(=O)N[C@@H](CC(C)C)C(=O)N[C@@H](Cc1c[nH]c2ccccc12)C(=O)N[C@@H](CC(C)C)C(=O)N[C@H](C(=O)N[C@@H](CCCNC(=N)N)C(=O)N[C@@H](CCCNC(=N)N)C(=O)O)C(C)C` [A5W (P2)] (H-RGLGLWLVRRPRGLGLWLVRR-OH), the “BL21 MIC” value was found to be 12.50 µg/mL. To `CC(C)C[C@H](NC(=O)CNC(=O)[C@H](CCCNC(=N)N)NC(=O)[C@@H]1CCCN1C(=O)[C@H](CCCNC(=N)N)NC(=O)[C@H](CCCNC(=N)N)NC(=O)[C@@H](NC(=O)[C@H](CC(C)C)NC(=O)[C@H](C)NC(=O)[C@H](CC(C)C)NC(=O)CNC(=O)[C@H](CC(C)C)NC(=O)CNC(=O)[C@@H](N)CCCNC(=N)N)C(C)C)C(=O)NCC(=O)N[C@@H](C)C(=O)N[C@@H](C)C(=O)N[C@@H](CC(C)C)C(=O)N[C@H](C(=O)N[C@@H](CCCNC(=N)N)C(=O)N[C@@H](CCCNC(=N)N)C(=O)O)C(C)C` [Peptide P2_L16A] (H-RGLGLALVRRPRGLGAALVRR-OH) belongs 50.00 µg/mL; to `CC(C)C[C@H](NC(=O)CNC(=O)[C@H](CCCNC(=N)N)NC(=O)[C@@H]1CCCN1C(=O)[C@H](CCCNC(=N)N)NC(=O)[C@H](C)NC(=O)[C@@H](NC(=O)[C@H](CC(C)C)NC(=O)[C@H](C)NC(=O)[C@H](CC(C)C)NC(=O)CNC(=O)[C@H](CC(C)C)NC(=O)CNC(=O)[C@@H](N)CCCNC(=N)N)C(C)C)C(=O)NCC(=O)N[C@@H](CC(C)C)C(=O)N[C@@H](C)C(=O)N[C@@H](CC(C)C)C(=O)N[C@H](C(=O)N[C@@H](C)C(=O)N[C@@H](CCCNC(=N)N)C(=O)O)C(C)C` [R9A, R20A] (H-RGLGLALVARPRGLGLALVAR-OH), 50.00 µg/mL. For `CSCC[C@H](NC(=O)[C@H](C)NC(=O)[C@H](CCCNC(=N)N)NC(=O)[C@@H](NC(=O)[C@H](CC(C)C)NC(=O)[C@H](C)NC(=O)[C@H](CC(C)C)NC(=O)CNC(=O)[C@H](CC(C)C)NC(=O)CNC(=O)[C@@H](N)CCCNC(=N)N)C(C)C)C(=O)N[C@@H](CCCNC(=N)N)C(=O)NCC(=O)N[C@@H](CC(C)C)C(=O)NCC(=O)N[C@@H](CC(C)C)C(=O)N[C@@H](C)C(=O)N[C@@H](CC(C)C)C(=O)N[C@H](C(=O)N[C@@H](C)C(=O)N[C@@H](CCCNC(=N)N)C(=O)O)C(C)C` [Peptide P2_4R_M] (H-RGLGLALVRAMRGLGLALVAR-OH) the value was 12.50 µg/mL; for `CC(C)C[C@H](NC(=O)CNC(=O)[C@H](CCCNC(=N)N)NC(=O)[C@@H]1CCCN1C(=O)[C@H](CCCNC(=N)N)NC(=O)[C@H](CCCNC(=N)N)NC(=O)[C@@H](NC(=O)[C@H](CC(C)C)NC(=O)[C@H](C)NC(=O)[C@H](CC(C)C)NC(=O)CNC(=O)[C@H](CC(C)C)NC(=O)CNC(=O)[C@@H](N)CCCNC(=N)N)C(C)C)C(=O)NCC(=O)N[C@@H](CC(C)C)C(=O)N[C@@H](Cc1ccccc1)C(=O)N[C@@H](CC(C)C)C(=O)N[C@H](C(=O)N[C@@H](CCCNC(=N)N)C(=O)N[C@@H](CCCNC(=N)N)C(=O)O)C(C)C` [Peptide P2_A5F] (H-RGLGLALVRRPRGLGLFLVRR-OH), 3.13 µg/mL; for `CC(C)C[C@H](NC(=O)CNC(=O)[C@H](CCCNC(=N)N)NC(=O)[C@@H]1CCCN1C(=O)[C@H](CCCNC(=N)N)NC(=O)[C@H](CCCNC(=N)N)NC(=O)[C@@H](NC(=O)[C@H](CC(C)C)NC(=O)[C@H](C)NC(=O)[C@H](CC(C)C)NC(=O)CNC(=O)[C@H](C)NC(=O)CNC(=O)[C@@H](N)CCCNC(=N)N)C(C)C)C(=O)NCC(=O)N[C@@H](CC(C)C)C(=O)N[C@@H](C)C(=O)N[C@@H](CC(C)C)C(=O)N[C@H](C(=O)N[C@@H](CCCNC(=N)N)C(=O)N[C@@H](CCCNC(=N)N)C(=O)O)C(C)C` [Peptide P2_L3A] (H-RGAGLALVRRPRGLGLALVRR-OH), 12.50 µg/mL. To `CC[C@H](C)[C@H](NC(=O)CNC(=O)[C@H](CC(C)C)NC(=O)[C@@H](N)CCCNC(=N)N)C(=O)N[C@@H](C)C(=O)N[C@H](C(=O)N[C@@H](C)C(=O)N[C@@H](CC(C)C)C(=O)N[C@@H](CCCNC(=N)N)C(=O)N[C@@H](CCCNC(=N)N)C(=O)N1CCC[C@H]1C(=O)N[C@@H](CCCNC(=N)N)C(=O)N[C@@H](CC(C)C)C(=O)N[C@@H](C)C(=O)N[C@H](C(=O)N[C@@H](C)C(=O)N[C@H](C(=O)N[C@@H](C)C(=O)N[C@@H](CC(C)C)C(=O)N[C@@H](CCCNC(=N)N)C(=O)N[C@@H](CCCNC(=N)N)C(=O)O)C(C)C)[C@@H](C)CC)C(C)C` [Peptide P33-G14A] (H-RLGIAVALRRPRLAIAVALRR-OH) belongs 6.25 µg/mL; to `CC(C)C[C@H](NC(=O)CNC(=O)[C@H](CCCNC(=N)N)NC(=O)[C@@H]1CCCN1C(=O)[C@H](CCCNC(=N)N)NC(=O)[C@H](CCCNC(=N)N)NC(=O)[C@@H](NC(=O)[C@H](CC(C)C)NC(=O)[C@H](C)NC(=O)[C@H](C)NC(=O)CNC(=O)[C@H](CC(C)C)NC(=O)CNC(=O)[C@@H](N)CCCNC(=N)N)C(C)C)C(=O)NCC(=O)N[C@@H](CC(C)C)C(=O)N[C@@H](C)C(=O)N[C@@H](CC(C)C)C(=O)N[C@H](C(=O)N[C@@H](CCCNC(=N)N)C(=O)N[C@@H](CCCNC(=N)N)C(=O)O)C(C)C` [Peptide P2_L5A] (H-RGLGAALVRRPRGLGLALVRR-OH), 50.00 µg/mL; to `CC[C@H](C)[C@H](NC(=O)CNC(=O)[C@H](C)NC(=O)[C@H](CCCNC(=N)N)NC(=O)[C@@H]1CCCN1C(=O)[C@H](CCCNC(=N)N)NC(=O)[C@H](CCCNC(=N)N)NC(=O)[C@H](CC(C)C)NC(=O)[C@H](C)NC(=O)[C@@H](NC(=O)[C@H](C)NC(=O)[C@@H](NC(=O)CNC(=O)[C@H](CC(C)C)NC(=O)[C@@H](N)CCCNC(=N)N)[C@@H](C)CC)C(C)C)C(=O)N[C@@H](C)C(=O)N[C@H](C(=O)N[C@@H](C)C(=O)N[C@@H](CC(C)C)C(=O)N[C@@H](CCCNC(=N)N)C(=O)N[C@@H](CCCNC(=N)N)C(=O)O)C(C)C` [Peptide P33-L13A] (H-RLGIAVALRRPRAGIAVALRR-OH), 6.25 µg/mL.
